Source: patent US20240016781A1, “TREATMENT OF KRAS MUTANT CANCERS” (MEI Pharma, Inc., priority 2020, published 2024)

Test system: Huh-7 xenografts
Assay: CIVO intratumoral microinjection, Huh-7 xenografts
Format: in vivo
Conditions: Huh-7 liver cancer model
Description: FIG. 6 depicts the CIVO injection array.
CC3 is not elevated over background levels at any injection site.

Compound: CN1CCN(c2ccc(OC(F)(F)F)c(Nc3ncc4c(n3)-c3c(c(C(N)=O)nn3CCO)CC4)c2)CC1 [Onvansertib]
- apoptotic cells (CC3): do not result in an increase in apoptotic cells
